Here are results for 1 compound from US20040115822A1, “Methods of measuring the dissolution rate of an analyte in a non-aqueous liquid composition” (priority 2002, published 2004).

The nature of the data set: Solubility of CCFA as a function of pH. Format: physicochemical. To be noted: below pH 5. The text has this:
In this example, CCFA was employed as the analyte. The solubility of CCFA varies as a function of pH.

Regarding `CO/N=C(\C(=O)N[C@@H]1C(=O)N2C(C(=O)O)=C(CSC(=O)c3ccco3)CS[C@H]12)c1csc(N)n1` [CCFA, ceftiofur crystalline free acid], the “solubility of CCFA” value is “relatively insoluble”.
